Tests used:
[1] = test system: anticipatory unfolded protein response (a-UPR); assay: a-UPR immunoblotting/western blot in MCF-7 cells; assay type: cell-based
Procedure: a-UPR Immunoblotting/Western Blot Procedure. 400,000 MCF-7 cells/per well were seeded into 6 or 12 well plates and allowed to adhere overnight. Media was then aspirated from each well and then fresh media with diluted test compound (0.1% DMSO concentration) was added accordingly. Cells were incubated for 4 or 6 hours, then harvested. PBS-washed cell pellets were then lysed using RIPA buffer containing phosphatase (BioVision) and protease inhibitor cocktail (Calbiochem). Protein concentrations were determined using the BCA assay (Pierce). Lysates containing 10-15 μg of protein were loaded onto 4-20% gradient gels (BioRad), and SDS-PAGE was run. Proteins were then transferred onto membrane (PDVF Millipore) and blots blocked with BSA solution (2 g in 40 mL TBST) for one hour. After blocking, primary antibody was added and incubated overnight (using manufacturer's recommended dilutions). Following overnight incubation, blots were washed with TBST (5-minute incubation for each wash, washed 3 times), then incubated with HRP-linked secondary antibody for 1 hour in TBST. Blots were washed (10-minute incubation for each wash for a total of two ten-minute washes). SuperSignal West Pico Solution was then added following manufacturer's procedures and blots imaged with ChemiDoc.
Antibodies. […]

[2] = test system: MCF-7 cells; assay: Alamar blue fluorescence viability (IC50), MCF-7; assay type: cell-based
Procedure: (§1) Cancer Cell Lines: Culturing Conditions and Validation. All cell lines were cultured at 37° C. with 5% CO2. All ERα-positive cell lines were grown in media lacking phenol red. MCF-7 were grown in EMEM with 10% FBS and 1% penicillin-streptomycin (P/S). T47D were cultured in MEM with 10% FBS and 1% P/S. TYS and TDG cells were grown in MEM supplemented with 10% CD-FBS and 1% P/S. HCT-116 and MDA-MB-231 cells were cultured in RPMI-1640 supplemented with 10% FBS and 1% P/S. MDA-MB-436 cells were cultured in DMEM supplemented with 10% FBS and 1% P/S. HT-29 were cultured in McCoy's media supplemented with 10% FBS and 1% P/S. All cell lines were used directly from ATCC stocks and/or have been further authenticated using PowerPlex16HS Assay (Promega) as described previously.^54 In short, >1 million cells were harvested and lysed using the cell lysis buffer (50 mM Tris, 50 mM EDTA, 25 mM sucrose, 100 mM NaCl, 1% SDS, pH 8). DNA extraction and short tandem repeats (STRs) profiling for each cell line were carried out at the University of Arizona Genetics Core (UAGC). Autosomal STR profiles were compared to reference databases such as ATCC, DSMZ, and JCRB.
(§2) Alamar Blue Fluorescence for Anticancer Activity (IC50). 2,000-15,000 cells per well were seeded a 96-well plate. Cells were allowed to adhere before DMSO stock solutions of test compounds were added to each well with a final concentration of DMSO in each well=1%; final volume: 100 μL. At the end of the desired incubation time (e.g., 24 or 72 hours), media in each well was aspirated and new fresh media (no compound, 100 μL) was added. Alamar blue solution (4 mg resazurin per 40 mL PBS) was then added (10 μL). After 2-6 hours incubation, each well's fluorescence (λexcit.=555 nm, λemission.=585 nm) was measured using a SpectraMax M3 plate reader (Molecular Devices). Percent dead was determined by comparison to a 100% dead control: 100 μM raptinal treated cells. Dose dependent curves and IC50 were calculated using Origin Pro V10.

[3] = Simulated gastric fluid (SGF) stability assay; assay type: in vitro ADME; settings: 100 μM in SGF with pepsin; for half-life at 100 μM: simulated gastric fluid with pepsin, pH 1.2, one-phase decay, read-out: t1/2 (min) (95% CI)
Procedure: Simulated Gastric Fluid (SGF) Stability Assay. SGF was prepared fresh by adding 3.2 g pepsin (Sigma Aldrich P7000) to 1000 mL of SGF (Fischer Scientific 7108-16) and the pH adjusted to 1.2 using a pH meter. This SGFwith pepsin solution was then warmed to 37° C. 990 μL of warmed SGFwith pepsin was then aliquoted into multiple Eppendorf tubes, followed by 10 μL of 10 mM DMSO stock solutions of test compounds. Erythromycin (MedChemExpress HY-B0220) is a positive control for this stability assay. Samples were incubated at 37° C. for the entire experiment with vortexing every 15 minutes. At each desired time point (0, 15, 30, 60, 120 minutes), a 100 μL aliquot is removed and quenched into 50 μL of acetonitrile. Samples are stored at 4° C. until all time points are complete. Samples were then vortexed and then clarified at 3,000 RPM for 10 minutes in a 4° C. centrifuge. Supernatants were collected and compound concentrations determined by LC-MS/MS (UIUC Metabolomics Center, Urbana, IL.). Determined compound concentrations were used to calculate percent remaining compared to t=0 samples.

[4] = test system: ERα− cancer cell lines; assay: Selectivity of cell killing, ERα+ versus ERα− cancer cell lines; assay type: cell-based; settings: MDA-MB-231, HCT-116, HT-29; for potencies against ERα− cancer cell lines (in words): 24- and 72-hour incubations
Procedure: as §1, §2

Row | % Remaining after 120 min (SD) [3] | half-life at 100 μM [3] | IC50 ([2]; Homo sapiens, MCF7, MCF-7, 24 and 72 hr, read-out: IC50 values) | SMILES | a-UPR activation (P-AMPK, P-EIF2α, cleavage of ATF6α p90), western blot [1] | anticancer activity against MCF-7 cells (in words) ([2]; MCF-7 cells) | potencies against ERα− cancer cell lines (in words) [4] | fold change MCF-7 versus ERα− cell lines [4]
1 |  |  |  | O=C1Nc2c(C(F)(F)F)cccc2[C@]1(c1ccc(O)cc1)N1CCC(F)(F)CC1 (single isomer, unassigned) [(S)-2] | No activation of the a-UPR | devoid of any activity |  | 
2 | 20±1% | 62 min |  | O=C1Nc2c(C(F)(F)F)cccc2[C@@]1(c1ccc(O)cc1)N1CCC(F)(F)C1 [(R)-24, (R)-3-(3,3-difluoropyrrolidin-1-yl)-3-(4-hydroxyphenyl)-7-(trifluoromethyl)indolin-2-one] |  |  | double-digit micromolar | 
3 | 27±1% | 77 min | 4 to 5 nM | O=C1Nc2c(C(F)(F)F)cccc2[C@@]1(c1ccc(O)cc1)N1CC(F)(F)C(F)(F)C1 [Compound (R)-26, (R)-3-(4-hydroxyphenyl)-3-(3,3,4,4-tetrafluoropyrrolidin-1-yl)-7-(trifluoromethyl)indolin-2-one] |  |  | double-digit micromolar | ≥ 3500
